Measurements taken from US20210292333A1, “CONDENSED AZAHETEROARYL COMPOUNDS HAVING ANTIBACTERIAL ACTIVITY AGAINST TU[…]” (CADILA HEALTHCARE LIMITED, priority 2018, published 2021).
In brackets after ≈: the same amount, converted by molar mass.

What was measured:
[1] = Pharmacokinetics of the compounds in mice (IV and oral single dose); format: in vivo; conditions: mouse, plasma, Balb/c mice; for bioavailability: PO 3 mg/kg vs IV 1 mg/kg, read-out: F(%) absolute oral bioavailability; for AUC(0-t) / Cmax: single dose, Oral (PO) 3 mg/kg suspension, IV 1 mg/kg, route not given
Protocol: Balb/c mice were obtained from Zydus Research Centre, Ahmedabad India, AAALAC Accreditation. All animals were housed in temperature-control rooms with appropriate light/dark cycles. The animals were overnight fasted before oral gavage dosing but were given access to water ad libitum. Food was provided 4 h after dosing. All animal studies were conducted according to protocols reviewed and approved by the Institutional Animal Care and Ethics Committee at the Zydus Research Centre. Compounds were dosed as a solution in 10% NMP and 10% solutol in Normal Saline (Intravenous (IV), 1 mg/kg) and homogenous suspension (Oral (PO), 3 mg/kg) in 0.5% Tween 80 in 0.5% methyl cellulose as a single dose in mice. For mouse composite PK profile was generated. Blood samples were collected at 0.08 (IV only), 0.25, 0.5, 1, 2, 4, 6, 7.5, and 24 h post-dose in Na-heparin coated micro centrifuge tubes. Blood samples were centrifuged to separate plasma which were then stored at −70° C. until analysis. PK parameters were calculated by non-compartmental analysis using Phoenix (Pharsight Corp., Mountain View, Calif.). A model was selected based on the vascular (IV bolus) or extravascular (PO) routes of administration. For the PO route, concentration at time zero was assumed to be zero. Plasma concentrations below the limit of quantitation were treated as zero concentration for the purpose of calculating the mean plasma concentration values. Pharmacokinetic parameters such as maximum plasma concentration (Cmax), area under the curve of concentration over the time (AUC (0-t)) and absolute oral bioavailability (F (%)) of the selected compounds are shown in Table 3.

[2] = system: Mycobacterium tuberculosis H37Rv; test: Minimum Inhibitory Concentration (MIC) determination, MABA assay; format: cell-based; conditions: 168 h, 7H9 medium, 7 days at 37° C., alamar blue, read-out: Mtb MIC
Protocol: To assess the bacterial growth inhibitory effect of the compounds of the invention, MABA assay was performed with log phase culture of Mycobacterium tuberculosis H37Rv. Bacterial culture of optical density 0.6-0.8 was diluted to final density of 0.02 in 7H9 medium. 100 μl of diluted Mycobacterium tuberculosis H37Rv was incubated with the test compounds in microtiter plate. A drug free control containing DMSO also was also prepared. Following incubation of the compound with culture for 7 days at 37° C., 20 μl of 0.02% alamar blue (freshly prepared) was added in each well. The color was allowed to develop for 16 h at 37° C. Blue color in the well indicated no growth whereas pink color signifies growth in the well. MIC value is defined as the lowest concentration that prevents the color change from blue to pink. Fluorescence was measured at excitation at 530 nm and emission at 590 nm.

For `CCOc1ncnc(Cn2nc(C(=O)NCC3(O)CC3)c3ncc(C)cc32)c1C` [Example 3, 1-((6-ethoxy-5-methylpyrimidin-4-yl)methyl)-N-((1-hydroxycyclopropyl)methyl)-6-methyl-1H-pyrazolo[4,3-b]pyridine-3-carboxamide], the bioavailability [1] was 100%, the AUC(0-t) [1] was 2810 ng·h/mL and the Cmax [1] was 2720 ng/mL. The MIC [2] was no more than 0.625 µM.
For `COc1ncnc(Cn2nc(C(=O)NCC3(O)CC3)c3ncc(C)cc32)c1C` [Example 1, N-((1-hydroxycyclopropyl)methyl)-1-((6-methoxy-5-methylpyrimidin-4-yl)methyl)-6-methyl-1H-pyrazolo[4,3-b]pyridine-3-carboxamide], the bioavailability [1] was 100%, the AUC(0-t) [1] was 2850 ng·h/mL and the Cmax [1] was 1730 ng/mL. The MIC [2] was 1.25 µM (≈ 0.478 µg/mL).
Work on `COCCNC(=O)c1nn(Cc2ncnc(OC)c2C)c2cc(C)cnc12` [Example 10, 1-((6-methoxy-5-methylpyrimidin-4-yl)methyl)-N-(2-methoxyethyl)-6-methyl-1H-pyrazolo[4,3-b]pyridine-3-carboxamide] yielded a bioavailability [1] of 100%, an AUC(0-t) [1] of 5130 ng·h/mL and a Cmax [1] of 4000 ng/mL. The MIC [2] was 5 µM (≈ 1.85 µg/mL).
`COc1ncnc(Cn2cc(C(=O)NCC3(O)CC3)c3ncc(C)cc32)c1C` [Example 85, N-((1-hydroxycyclopropyl)methyl)-1-((6-methoxy-5-methylpyrimidin-4-yl)methyl)-6-methyl-1H-pyrrolo[3,2-b]pyridine-3-carboxamide] gave a bioavailability [1] of 94%, an AUC(0-t) [1] of 2180 ng·h/mL and a Cmax [1] of 1470 ng/mL. The MIC [2] was no more than 0.0625 µM.
Work on `COc1nc(C)ccc1Cn1nc(C(=O)NCC2(O)CC2)c2ncc(C)cc21` [Example 9, N-((1-hydroxycyclopropyl)methyl)-1-((2-methoxy-6-methylpyridin-3-yl)methyl)-6-methyl-1H-pyrazolo[4,3-b]pyridine-3-carboxamide] yielded a bioavailability [1] of 78%, an AUC(0-t) [1] of 2160 ng·h/mL and a Cmax [1] of 1570 ng/mL.
Work on `COc1ncnc(Cn2nc(C(=O)NCC3(O)CC3)c3ncc(C)nc32)c1C` [Example 14, N-((1-hydroxycyclopropyl)methyl)-1-((6-methoxy-5-methylpyrimidin-4-yl)methyl)-6-methyl-1H-pyrazolo[3,4-b]pyrazine-3-carboxamide] yielded a bioavailability [1] of 90%, an AUC(0-t) [1] of 1680 ng·h/mL and a Cmax [1] of 1600 ng/mL.
For `CCOc1ncnc(Cn2cc(C(=O)NCC3(O)CC3)c3ncc(C)nc32)c1C` [Example 13, 5-((6-ethoxy-5-methylpyrimidin-4-yl)methyl)-N-((1-hydroxycyclopropyl)methyl)-3-methyl-5H-pyrrolo[2,3-b]pyrazine-7-carboxamide], the bioavailability [1] was 100%, the AUC(0-t) [1] was 2150 ng·h/mL and the Cmax [1] was 1320 ng/mL. For the same molecule, the MIC [2] was 0.25 µM (≈ 0.0991 µg/mL).
`COc1ncnc(Cn2cc(C(=O)NCC3(O)CC3)c3ncc(C)nc32)c1C` [Example 11, N-((1-hydroxycyclopropyl)methyl)-5-((6-methoxy-5-methylpyrimidin-4-yl)methyl)-3-methyl-5H-pyrrolo[2,3-b]pyrazine-7-carboxamide] gave a bioavailability [1] of 100%, an AUC(0-t) [1] of 2570 ng·h/mL and a Cmax [1] of 1660 ng/mL. It also gave an MIC [2] of 0.5 µM (≈ 0.191 µg/mL).
Molecule `COc1cnc2c(C(=O)NCC3(O)CC3)cn(Cc3ncnc(OC)c3C)c2n1` [Example 12, N-((1-hydroxycyclopropyl)methyl)-3-methoxy-5-((6-methoxy-5-methylpyrimidin-4-yl)methyl)-5H-pyrrolo[2,3-b]pyrazine-7-carboxamide] has a bioavailability [1] of 100%, an AUC(0-t) [1] of 2920 ng·h/mL and a Cmax [1] of 1720 ng/mL. The MIC [2] was 0.25 µM (≈ 0.0996 µg/mL).
